In one test the target is T1, human CD38 (Homo sapiens, UniProt P28907).
T1 sequence (P28907 1-300): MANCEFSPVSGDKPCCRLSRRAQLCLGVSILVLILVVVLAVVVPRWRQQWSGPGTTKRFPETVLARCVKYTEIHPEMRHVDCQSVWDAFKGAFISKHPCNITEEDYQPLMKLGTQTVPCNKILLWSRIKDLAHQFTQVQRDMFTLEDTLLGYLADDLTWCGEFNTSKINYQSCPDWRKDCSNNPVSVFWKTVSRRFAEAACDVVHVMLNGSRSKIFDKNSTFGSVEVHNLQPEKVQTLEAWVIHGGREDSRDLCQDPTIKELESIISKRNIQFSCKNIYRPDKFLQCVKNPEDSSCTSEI
The test is described as follows: human recombinant CD38 enzyme assay (hydrolysis of NAD+). Format: biochemical. To be noted: human recombinant CD38, 0.4 nM enzyme, 62.5 μM NAD+; read-out: hCD38 BioChem IC50. The method in brief:
(§1)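 Cell-free recombinant enzyme, NAD+ substrate, 60 min at RT. Stop/detect: ethanol/ADH plus semicarbazide and a CD38 inhibitor (15 min), then NaOH, then resazurin/diaphorase (15 min). Remaining NAD+ read as resorufin fluorescence, Ex/Em 540/590 nm. Inhibition fitted from dose responses.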

For another test, the target named is T2, mouse CD38 (Mus musculus, UniProt P56528).
T2 sequence (P56528 1-304): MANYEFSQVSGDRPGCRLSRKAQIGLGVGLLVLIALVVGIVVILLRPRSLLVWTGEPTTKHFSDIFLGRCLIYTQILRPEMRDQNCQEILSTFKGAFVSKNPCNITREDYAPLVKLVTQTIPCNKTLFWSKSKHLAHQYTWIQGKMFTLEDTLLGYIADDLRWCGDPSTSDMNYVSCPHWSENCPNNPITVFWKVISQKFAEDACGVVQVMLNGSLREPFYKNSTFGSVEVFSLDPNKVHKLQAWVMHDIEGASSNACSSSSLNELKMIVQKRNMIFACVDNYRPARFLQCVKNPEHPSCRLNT
The test is described as follows: mouse recombinant CD38 enzyme assay (hydrolysis of NAD+). It counts as biochemical. As to conditions: read-out: mCD38 BioChem IC50. Summed up:
as §1

Test [1] has as its target T3, endogenous CD38 in HL60 cells (Homo sapiens, UniProt P28907).
T3 construct: endogenous in cells; host or cells: HL60 (leukemic cells, treated with all-trans retinoic acid)
T3 sequence (P28907 1-300): T1 sequence (P28907 1-300)
The test is described as follows: cellular CD38 assay in HL60 cells (cellular NAD levels). It counts as cell-based. To be noted: all-trans retinoic acid, 24 hours, read-out: hCD38 HL60 ATRA NAD Cell Diaphorase IC50. The method in brief: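 HL60 cells (20000/well) were treated with compound in DMSO for 24 h. Cellular NAD was then measured by an enzymatic cycling mix (alcohol dehydrogenase, diaphorase, 40 uM resazurin, 10 uM FMN, 3% ethanol, Triton X-100, pH 8.4).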

This is an account of results in patent US20230116972A1, “CD38 MODULATORS AND METHODS OF USE THEREOF” (Cytokinetics, Inc., priority 2021, published 2023).

Regarding `Cc1cc(C(F)(F)F)ncc1NC(=O)c1cccc(-n2ccnc2)n1` [Compound 29, 6-(1H-imidazol-1-yl)-N-(4-methyl-6-(trifluoromethyl)pyridin-3-yl)picolinamide], the IC50 (in general, the concentration that gives 50% inhibition) at human CD38 is 0.389 µM; on mouse CD38, 0.11 µM; in test [1], 8.55 µM.

For the compound `COC(=O)N1CCC(NC(=O)c2cccc(-n3ccnc3)n2)CC1` [Compound 45, methyl 4-(6-(1H-imidazol-1-yl)picolinamido)piperidine-1-carboxylate], the IC50 at human CD38 was determined as 0.082 µM; on mouse CD38 it was 0.044 µM; in test [1] it was 4.69 µM.

On to `O=C(N[C@H]1CC[C@H](C(F)F)CC1)c1cc(C2CC2)nc(-n2ccnc2)n1` [Compound 161, 6-cyclopropyl-N-((1r,4r)-4-(difluoromethyl)cyclohexyl)-2-(1H-imidazol-1-yl)pyrimidine-4-carboxamide], for which the half-inhibitory concentration (IC50) was determined as 0.026 µM at human CD38, 0.004 µM at mouse CD38 and 2.45 µM in test [1].

On to `Cn1cncc1-c1ccnc(C(=O)Nc2ccc(C(F)(F)F)nc2)n1` [Compound 74, 4-(1-methyl-1H-imidazol-5-yl)-N-(6-(trifluoromethyl)pyridin-3-yl)pyrimidine-2-carboxamide], for which the IC50 stood at 0.003 µM on human CD38, 0.01 µM on mouse CD38 and 0.349 µM in test [1].

With `Cn1cncc1-c1ccnc(C(=O)N[C@H]2CC[C@H](C(F)F)CC2)n1` [Compound 75, N-((1r,4r)-4-(difluoromethyl)cyclohexyl)-4-(1-methyl-1H-imidazol-5-yl)pyrimidine-2-carboxamide], the IC50 was 0.041 µM at human CD38, 0.019 µM at mouse CD38 and 1.36 µM in test [1].

Turning to `Cn1cncc1-c1ccnc(C(=O)N[C@H]2C[C@H](c3ccc(F)cc3)C2)n1` [Compound 242, N-((1r,3r)-3-(4-fluorophenyl)cyclobutyl)-4-(1-methyl-1H-imidazol-5-yl)pyrimidine-2-carboxamide], the IC50 is 0.0288 µM on human CD38, 0.0213 µM on mouse CD38 and 2.37 µM in test [1].

For the compound `Cc1cc(C(=O)N[C@H]2CC[C@H](C(F)F)CC2)nc(-n2ccnc2)n1` [Compound 120, N-((1r,4r)-4-(difluoromethyl)cyclohexyl)-2-(1H-imidazol-1-yl)-6-methylpyrimidine-4-carboxamide], the IC50 at human CD38 is 0.01 µM; on mouse CD38, 0.002 µM; in test [1] it was 1.13 µM.

`O=C(Nc1cccnc1)c1cccc(-c2cncs2)n1` [Compound 11, N-(pyridin-3-yl)-6-(thiazol-5-yl)picolinamide]: the figures for the IC50 (at human CD38; on mouse CD38; in test [1]) were 2.11 µM, 0.741 µM and 8.05 µM, respectively.

For the compound `Cn1cncc1-c1ccnc(C(=O)N[C@H]2C[C@H](c3cccc(F)c3)C2)n1` [Compound 241, N-((1r,3r)-3-(3-fluorophenyl)cyclobutyl)-4-(1-methyl-1H-imidazol-5-yl)pyrimidine-2-carboxamide], the IC50 amounted to 0.0167 µM at human CD38, 0.0144 µM on mouse CD38 and 2.05 µM in test [1].

Consider `COc1cc(C(=O)N[C@H]2CC[C@H](C)CC2)nc(-n2ccnc2)c1` [Compound 166, 6-(1H-imidazol-1-yl)-4-methoxy-N-((1r,4r)-4-methylcyclohexyl)picolinamide], for which the figures for the IC50 (at human CD38; on mouse CD38; in test [1]) were 0.021 µM, 0.002 µM and 2.24 µM, respectively.

As for `COCCO[C@H]1CC[C@H](NC(=O)c2cc(C)nc(-n3ccnc3)n2)CC1` [Compound 156, 2-(1H-imidazol-1-yl)-N-((1r,4r)-4-(2-methoxyethoxy)cyclohexyl)-6-methylpyrimidine-4-carboxamide], the IC50 stood at 0.03 µM on human CD38, 0.004 µM at mouse CD38 and 2.3 µM in test [1].

Turning to `COc1ccc([C@H]2C[C@H](NC(=O)c3nccc(-c4cncn4C)n3)C2)cc1` [Compound 218, N-((1r,3r)-3-(4-methoxyphenyl)cyclobutyl)-4-(1-methyl-1H-imidazol-5-yl)pyrimidine-2-carboxamide], the IC50 on human CD38 was 0.0252 µM; on mouse CD38 it was 0.0116 µM; in test [1] it was 2.22 µM.

`O=C(Nc1ccc(C(F)F)nc1)c1cc(C2CC2)nc(-n2ccnc2)n1` [Compound 162, 6-cyclopropyl-N-(6-(difluoromethyl)pyridin-3-yl)-2-(1H-imidazol-1-yl)pyrimidine-4-carboxamide]: the IC50 at human CD38 amounted to 0.003 µM; on mouse CD38 it was 0.001 µM; in test [1], 0.718 µM.

With `Cc1cc(-n2ccnc2)nc(C(=O)Nc2ccc(C(F)F)nc2)n1` [Compound 215, N-(6-(difluoromethyl)pyridin-3-yl)-4-(1H-imidazol-1-yl)-6-methylpyrimidine-2-carboxamide], the values for the IC50 (on human CD38; on mouse CD38; in test [1]) were 0.002 µM, 0.0016 µM and 0.214 µM, respectively.

In the case of `O=C(Nc1ccc(C(F)(F)F)nc1)c1ccnc(-c2cncs2)n1` [Compound 86, 2-(thiazol-5-yl)-N-(6-(trifluoromethyl)pyridin-3-yl)pyrimidine-4-carboxamide], the IC50 came out at 0.194 µM on human CD38, 0.219 µM at mouse CD38 and 8.81 µM in test [1].

For `COc1cc(C(=O)Nc2ccc(C(F)F)nc2)nc(-c2cncs2)c1` [Compound 163, N-(6-(Difluoromethyl)pyridin-3-yl)-4-methoxy-6-(thiazol-5-yl)picolinamide], the values for the IC50 (at human CD38; on mouse CD38; in test [1]) were 0.375 µM, 0.082 µM and 11.7 µM, respectively.

Take `CO[C@H]1CC[C@H](NC(=O)c2nc(-c3cncn3C)cc(C3CC3)n2)CC1` [Compound 203, 4-cyclopropyl-N-((1r,4r)-4-methoxycyclohexyl)-6-(1-methyl-1H-imidazol-5-yl)pyrimidine-2-carboxamide]: the IC50 on human CD38 was 0.161 µM; on mouse CD38, 0.0121 µM; in test [1] it was 7.87 µM.

For `Cn1cncc1-c1nc(C(=O)NC23CC(C(C)(C)O)(C2)C3)cc(C2CCOCC2)n1` [Compound 292, N-(3-(2-hydroxypropan-2-yl)bicyclo[1.1.1]pentan-1-yl)-2-(1-methyl-1H-imidazol-5-yl)-6-(tetrahydro-2H-pyran-4-yl)pyrimidine-4-carboxamide], the IC50 at human CD38 was 0.0214 µM; on mouse CD38 it was 0.0071 µM; in test [1], 6.61 µM.

With `COc1cc(-c2cncn2C)nc(C(=O)Nc2ccc(C(F)(F)F)nc2)n1` [Compound 234, 4-methoxy-6-(1-methyl-1H-imidazol-5-yl)-N-(6-(trifluoromethyl)pyridin-3-yl)pyrimidine-2-carboxamide], the IC50 came out at 0.0024 µM at human CD38, 0.0014 µM on mouse CD38 and 0.557 µM in test [1].

On to `Cn1cncc1-c1nccc(C(=O)N[C@H]2CC[C@H](C)CC2)n1` [Compound 85, 2-(1-methyl-1H-imidazol-5-yl)-N-((1r,4r)-4-methylcyclohexyl)pyrimidine-4-carboxamide], for which the values for the IC50 (on human CD38; at mouse CD38; in test [1]) were 0.007 µM, 0.002 µM and 0.765 µM, respectively.

Turning to `Cn1cncc1-c1nc(C(=O)Nc2ccc(OC(F)F)nc2)cc(C2CCOCC2)n1` [Compound 282, N-(6-(difluoromethoxy)pyridin-3-yl)-2-(1-methyl-1H-imidazol-5-yl)-6-(tetrahydro-2H-pyran-4-yl)pyrimidine-4-carboxamide], the half-maximal inhibitory concentration (IC50) at human CD38 was 0.0024 µM; on mouse CD38, 0.0007 µM; in test [1], 0.655 µM.

For `O=C(N[C@H]1CC[C@H](O)CC1)c1cc(C(F)(F)F)cc(-n2ccnc2)n1` [Compound 62, N-(4-hydroxycyclohexyl)-6-(1H-imidazol-1-yl)-4-(trifluoromethyl)picolinamide], the IC50 worked out at 0.061 µM on human CD38, 0.012 µM at mouse CD38 and 6.71 µM in test [1].

On to `Cn1cncc1-c1ccnc(C(=O)N[C@H]2C[C@H](c3ccccc3)C2)n1` [Compound 213, 4-(1-methyl-1H-imidazol-5-yl)-N-((1r,3r)-3-phenylcyclobutyl)pyrimidine-2-carboxamide], for which the figures for the half-maximal inhibitory concentration (IC50) (at human CD38; on mouse CD38; in test [1]) were 0.0152 µM, 0.0091 µM and 1.47 µM, respectively.

As for `COc1cc(C(=O)N[C@H]2CC[C@H](OC)CC2)nc(-c2cncn2C)n1` [Compound 128, 6-methoxy-N-((1r,4r)-4-methoxycyclohexyl)-2-(1-methyl-1H-imidazol-5-yl)pyrimidine-4-carboxamide], the IC50 on human CD38 came out at 0.009 µM; on mouse CD38, 0.001 µM; in test [1] it was 0.928 µM.

As for `O=C(NC1CC2C(C1)C2(F)F)c1cccc(-n2ccnc2)n1` (stereo not drawn) [Compound 135, N-(6,6-difluorobicyclo[3.1.0]hexan-3-yl)-6-(1H-imidazol-1-yl)picolinamide], the IC50 is 0.076 µM at human CD38, 0.015 µM at mouse CD38 and 1.32 µM in test [1].
